Measurements: patent publication US10561616B2, “Sustained release dosage forms for a JAK1 inhibitor” (Incyte Corporation, priority 2013, dated 2020)

Key:
[1] = tested on: patients with plaque psoriasis; assay: Placebo controlled study in plaque psoriasis, 28 days (sPGA, PASI 50); type: in vivo, human
Procedure: A double-blind (sponsor unblinded), randomized, placebo controlled study was conducted in approximately 48 subjects treated for 28 days. Eligibility requirements included: active plaque psoriasis for at least 6 months at screening; body surface area (BSA) of plaque psoriasis of ≥5%; psoriasis area and severity index (PASI) score of ≥5; static physician's global assessment (sPGA) score of ≥3; inadequate response to topical therapies; innovative design allowing rapid progress between doses, with conservative safety assessment. […] Once the 4th subject (block of 3 active 1 PBO) completed 28 days administration without a Grade 3 or higher AE, the next group of 12 subjects initiated treatment with the next highest dose; while the first 4 subjects in this group are treated for 28 days, the 1st group is filled 60 subjects with moderate to severe psoriasis were randomized. […] A sequential method of recruitment was used, increasing from the lowest dose to the highest, each after the completion of 28 days for the first four subjects in the previous dose. The results at 28 days are show in Table 8 (PASI 50 is Psoriasis Area and Severity Index). […] The 5 mg tofacitinib dose is the approved dosage level for RA for safety reasons in the US.

JAK1 (IL-6) = assay: PK derived JAK1 (IL-6) inhibition by dose regimen
Description: (§1) It is believed that this efficacy/side-effect profile may be due to the QD dose achieving maximal JAK1 signaling (tied to efficacy) with low JAK2 inhibition at the trough, as JAK2 signaling is tied to hematopoiesis. This hypothesis is supported by the PK derived JAK1 (IL-6) and JAK2 (TPO) inhibition data for the compound of Formula at various doses (Table 7).

[2] = target: T1, human JAK1 (a.a. 837-1142) (Homo sapiens, UniProt P23458); assay: In vitro JAK kinase assay (HTRF), JAK1; type: biochemical; settings: measured at 1 mM ATP
T1 construct: human JAK1 (a.a. 837-1142); His tag (N); made in house; host or cells: insect cells (baculovirus)
T1 sequence (P23458 849-1154): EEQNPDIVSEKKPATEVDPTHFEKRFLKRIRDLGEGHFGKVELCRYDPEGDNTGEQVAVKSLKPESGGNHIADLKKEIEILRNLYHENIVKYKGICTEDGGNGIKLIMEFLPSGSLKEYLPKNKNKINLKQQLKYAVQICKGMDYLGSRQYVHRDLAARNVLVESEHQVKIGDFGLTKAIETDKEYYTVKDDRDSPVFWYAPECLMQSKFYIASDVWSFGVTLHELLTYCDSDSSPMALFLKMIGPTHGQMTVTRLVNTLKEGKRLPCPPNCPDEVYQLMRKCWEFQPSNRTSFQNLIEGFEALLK
Procedure: The compound of Formula I herein was tested for inhibitory activity of JAK targets according to the following in vitro assay described in Park et al., Analytical Biochemistry 1999, 269, 94-104. The catalytic domains of human JAK1 (a.a. 837-1142) and JAK2 (a.a. 828-1132) with an N-terminal His tag were expressed using baculovirus in insect cells and purified. The catalytic activity of JAK1 and JAK2 was assayed by measuring the phosphorylation of a biotinylated peptide. The phosphorylated peptide was detected by homogenous time resolved fluorescence (HTRF). IC50s of compounds were measured for each kinase in the 40 microL reactions that contain the enzyme, ATP and 500 nM peptide in 50 mM Tris (pH 7.8) buffer with 100 mM NaCl, 5 mM DTT, and 0.1 mg/mL (0.01%) BSA. For the 1 mM IC50 measurements, ATP concentration in the reactions was 1 mM. Reactions were carried out at room temperature for 1 hr and then stopped with 20 μL 45 mM EDTA, 300 nM SA-APC, 6 nM Eu-Py20 in assay buffer (Perkin Elmer, Boston, Mass.). Binding to the Europium labeled antibody took place for 40 minutes and HTRF signal was measured on a Fusion plate reader (Perkin Elmer, Boston, Mass.).

JAK2 (TPO) = assay: PK derived JAK2 (TPO) inhibition by dose regimen
Description: as §1

RA = settings: 5 mg BID; 3 months; cited from earlier work
psoriasis = settings: 5 mg; 12 weeks; cited from earlier work

## N#CCC1(n2cc(-c3ncnc4[nH]ccc34)cn2)CN(C2CCN(C(=O)c3ccnc(C(F)(F)F)c3F)CC2)C1 [compound of Formula I, {1-{1-[3-fluoro-2-(trifluoromethyl)isonicotinoyl]piperidin-4-yl}-3-[4-(7H-pyrrolo[2,3-d]pyrimidin-4-yl)-1H-pyrazol-1-yl]azetidin-3-yl}acetonitrile]
[1]; 100 mg BID (as headed)
  % PASI 50: 22.2%
  % sPGA (clear or minimal): 11.1%
  Mean % change sPGA: −22.2%
[1]; 200 mg BID
  % PASI 50: 44.4%
  % sPGA (clear or minimal): 33.3%
  Mean % change sPGA: −35.2%
[1]; 200 mg QD
  % PASI 50: 66.7%
  % sPGA (clear or minimal): 22.2%
  Mean % change sPGA: −29.4%
[1]; 600 mg QD
  % PASI 50: 81.8%
  % sPGA (clear or minimal): 45.5%
  Mean % change sPGA: −42.4%
JAK1 (IL-6); 100 mg BID
  Average IL-6 inhibition: 44%
  Trough IL-6 inhibition: 22%
JAK1 (IL-6); 100 mg QD
  Average IL-6 inhibition: 30%
  Trough IL-6 inhibition: 7%
JAK1 (IL-6); 200 mg BID
  Average IL-6 inhibition: 64%
  Trough IL-6 inhibition: 52%
JAK1 (IL-6); 200 mg QD
  Average IL-6 inhibition: 39%
  Trough IL-6 inhibition: 11%
JAK1 (IL-6); 300 mg QD
  Average IL-6 inhibition: 47%
  Trough IL-6 inhibition: 16%
JAK1 (IL-6); 400 mg BID
  Average IL-6 inhibition: 69%
  Trough IL-6 inhibition: 56%
JAK1 (IL-6); 600 mg QD
  Average IL-6 inhibition: 61%
  Trough IL-6 inhibition: 31%
[2]
  IC50: ≤ 5 nM
JAK2 (TPO); 100 mg BID
  Average TPO inhibition: 11%
  Trough TPO inhibition: 2%
JAK2 (TPO); 100 mg QD
  Average TPO inhibition: 7%
  Trough TPO inhibition: <1%
JAK2 (TPO); 200 mg BID
  Average TPO inhibition: 24%
  Trough TPO inhibition: 13%
JAK2 (TPO); 200 mg QD
  Average TPO inhibition: 11%
  Trough TPO inhibition: <1%
JAK2 (TPO); 300 mg QD
  Average TPO inhibition: 18%
  Trough TPO inhibition: 1%
JAK2 (TPO); 400 mg BID
  Average TPO inhibition: 33%
  Trough TPO inhibition: 16%
JAK2 (TPO); 600 mg QD
  Average TPO inhibition: 36%
  Trough TPO inhibition: 4%

## C[C@@H]1CCN(C(=O)CC#N)C[C@@H]1N(C)c1ncnc2[nH]ccc12.O=C(O)CC(O)(CC(=O)O)C(=O)O [tofacitinib citrate]
RA
  ACR20: 59%
  ACR50: 31%
  ACR70: 15%
psoriasis
  PASI 50 score: 65.3%
